Common to all, as to assay type: cell-based
Data set [1] deals with HBsAg. The data set is described as follows: PHH natural infection assay, HBsAg (alphalisa). The following applies: Hepatitis B virus, Hepatocyte, 72 h, read-out: HBsAg IC50. The procedure: (§1) Detailed procedures regarding primary human hepatocyte (PHH) HBV natural infection assay are described as below. One tube of frozen PHH (10 million cells) is thawed in 37° C. water bath and then transferred to 20 mL of PHH thawing medium (Sigma, InVitroGRO HT Medium, Cat. S03319) with gently mixing. The cells were then centrifuged at […] for 5 min, the supernatant was discarded and the tube was refilled with 25 mL of PHH plating medium (Sigma, InVitroGRO CP Medium, Cat. S03317). The tube was shaken very gently to re-suspend all cells, and then 50 µl of cells were transferred to each well 384-well collagen I coated plate with appropriate liquid handling equipment, e.g. Integra VIAFLO384 or Agilent Bravo. The cells were then cultured for 24 hours in a cell incubator. For HBV infection, after PHH attachment on the culture plate, the plating medium was removed and replenished with PHH culture medium containing HBV virus. The PHH culture medium was prepared with Dulbecco’s Modified Eagle Medium (DMEM)/F12 (1: 1 in volume ratio) containing 10% fetal bovine serum (Gibco, Cat.10099141), 5 ng/mL human epidermal growth factor (Gibco, Cat.PHG0311L), 20 ng/mL dexamethasone (Sigma, Cat.D4902-100 mg), 250 ng/mL human recombinant insulin (Gibco, Cat.41400045) and 100 U/mL penicillin. HBV virus at 200 genome equivalent (GE) per cell with 4% PEG8000 (Sigma, Cat.P1458) containing culture medium were added to the PHH culture medium for infection. The cells were then cultured for 24 hours in cell incubator. Then the cell culture supernatant was removed. The HBV-infected PHH were cultured with sandwich culture method with PHH culture medium containing 1% DMSO and 0.25 mg/mL matrix gel for 72 hours. The supernatant was then refreshed with PHH culture medium containing different concentrations of testing compounds for two times with 72-hour interval. At the end of treatment, the supernatant was collected for viral markers measurements, including HBsAg, HBeAg, HBV DNA and cytotoxicity. HBsAg and HBeAg were detected using alphalisa method using their specific antibodies. For HBV DNA detection, HBV DNA Quantitative Fluorescence Diagnostic Kit (Sansure Biotech Inc.) was used following the manufacture’s protocol. Cytotoxicity was determined using Cell Counting Kit-8 (CCK8, Dojindo Molecular Technologies, Inc.).
(§2) The compounds of the present invention were tested for their capacity to inhibit HBsAg and HBeAg as described herein.
A general note: In Alpha technology, singlet oxygen from a donor bead excites a nearby acceptor bead.

In data set [2] the test system is HBeAg. The experiment in a line: PHH natural infection assay, HBeAg (alphalisa). The following applies: Hepatitis B virus, Hepatocyte, 72 h, read-out: HBeAg IC50. The procedure: as §1, §2
Data set [3] is described as follows: PHH natural infection assay, cytotoxicity (Cell Counting Kit-8). The following applies: HBV-infected primary human hepatocytes, CCK8. The method, then: as §1
On the technique in general: Tetrazolium assays rely on reduction of a dye to a coloured formazan, in cell work by metabolically active cells.

The source of these data is patent US20230312491A1, “N-SUBSTITUTED 4-(5-PHENYL-1,3,4-OXADIAZOL-2-YL)ANILINE FOR THE TREATMENT AND PROPHYLAXIS OF HEPATITIS B VIRUS INFECTION” (priority 2020, published 2023).

For orientation: IC50 means the concentration at which inhibition is half-maximal. By CC50 is commonly meant the concentration that lowers cell viability or growth by half. `O=C(Nc1ccc(-c2nnc(-c3ccccc3)o2)cc1)c1ccc(F)cc1` [Example 12, 4-fluoro-N-[4-(5-phenyl-1,3,4-oxadiazol-2-yl)phenyl]benzamide]: the half-inhibitory concentration (IC50) in data set [1] turned out to be 6.2 µM; in data set [2], 6.33 µM. Further, in data set [3], the CC50 at 144 h is > 100 µM.
In the same order, the values of `COc1cc(C(=O)Nc2ccc(-c3nnc(-c4ccccc4)o3)cc2)ccn1` [Example 21, 2-methoxy-N-[4-(5-phenyl-1,3,4-oxadiazol-2-yl)phenyl]pyridine-4-carboxamide] are 2 µM, 1.91 µM and > 100 µM.
With `O=C(Nc1ccc(-c2nnc(-c3ccccc3)o2)cc1)c1cccc(OC(F)F)c1` [Example 17, 3-(difluoromethoxy)-N-[4-(5-phenyl-1,3,4-oxadiazol-2-yl)phenyl]benzamide], the IC50 in data set [1] was 1.46 µM; in data set [2], 2.79 µM. The CC50 at 144 h in data set [3] was > 100 µM.
In the same order, the values of `CCC(=O)Nc1ccc(-c2nnc(-c3ccccc3)o2)cc1` [Example 1, N-[4-(5-phenyl-1,3,4-oxadiazol-2-yl)phenyl]propanamide] are 1.19 µM, 4.85 µM and > 100 µM.
With `Nc1ccc(-c2nnc(-c3ccccc3)o2)cc1F` [Example 32, 2-Fluoro-4-(5-phenyl-1,3,4-oxadiazol-2-yl)aniline], the values for the half-maximal inhibitory concentration (IC50) in data set [1] and in data set [2] were 2.39 µM and 2.81 µM, respectively. Also, in data set [3], the CC50 at 144 h was > 100 µM.
